Assay results taken from US9023865B2, “Compounds that are ERK inhibitors” (Merck Sharp & Dohme Corp., priority 2011, dated 2015).
pIC50: −log10 of the molar value.

target: Active Human ERK2 (hERK2) (Homo sapiens (Human), UniProt P28482); experiment: Active Human ERK2 (hERK2) Activity Assay (IMAP-FP); format: biochemical; conditions: phosphorylated active hERK2, 30 μM ATP; average; read-out: ERK 2 Human average IC50
Outline: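 Reaction contains 0.5 nM activated hERK2, 900 nM unlabeled plus 80 nM labeled peptide and 30 μM ATP, run 60 min. Quenched with IMAP binding beads in buffer with 24 mM NaCl; fluorescence polarization read after 60 min binding equilibration.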

Active Human ERK2 (hERK2), sequence (P28482 whole entry): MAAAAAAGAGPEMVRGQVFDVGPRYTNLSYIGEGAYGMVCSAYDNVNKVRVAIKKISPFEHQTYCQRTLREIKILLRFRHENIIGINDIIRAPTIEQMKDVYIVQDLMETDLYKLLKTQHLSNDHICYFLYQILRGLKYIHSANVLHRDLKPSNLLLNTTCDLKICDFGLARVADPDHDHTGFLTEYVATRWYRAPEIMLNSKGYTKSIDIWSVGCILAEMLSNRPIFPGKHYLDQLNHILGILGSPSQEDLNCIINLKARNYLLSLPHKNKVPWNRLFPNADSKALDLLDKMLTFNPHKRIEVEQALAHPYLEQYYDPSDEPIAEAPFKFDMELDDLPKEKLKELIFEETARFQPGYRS

| SMILES | pIC50 |
| --- | --- |
| CCNC(=O)[C@H]1C[C@@H]1c1n[nH]c2cc(NC(=O)N[C@H](COC)c3ccccc3)ncc12 [Example 170, (1S,2S)—N-ethyl-2-(6-(3-((S)-2-methoxy-1-phenylethyl)ureido)-1H-pyrazolo[4,3-c]pyridin-3-yl)cyclopropanecarboxamide] | 9.15 |
| Cc1cc(-c2n[nH]c3cc(NC(=O)NCc4cccc(Cl)c4)ncc23)ccn1 [Example 27, 1-(3-chlorobenzyl)-3-[3-(2-methylpyridin-4-yl)-1H-pyrazolo[4,3-c]pyridin-6-yl]urea] | 9.15 |
| COc1cc(-c2n[nH]c3cc(NC(=O)N[C@H](C)c4ccccc4)ncc23)ccn1 [Example 661] | 9.03 |
| COC(=O)C1CC1c1n[nH]c2cc(NC(=O)N[C@H](C)c3ccccc3)ncc12 (some centres unmarked) [Example 642] | 6.49 |
| COC[C@@H](NC(=O)Nc1cc2[nH]nc(-c3ccc(C#N)cc3)c2cn1)c1ccccc1 [Example 607] | 9.47 |
| Cc1cc(-c2n[nH]c3cc(NC(=O)NC4CC(C)(C)Oc5ccccc54)ncc23)ccn1 (centres unmarked) [Example 271] | 8.23 |
| Cc1cc(-c2n[nH]c3cc(NC(=O)NCCF)ncc23)ccn1 [Example 199] | 8.31 |
| C[C@@H](NC(=O)Nc1cc2[nH]nc(-c3ccnc(F)c3)c2cn1)c1ccc(F)cc1 [Example 645] | 9.21 |
| COC[C@@H](NC(=O)Nc1cc2[nH]nc(-c3cnc(OC)nc3)c2cn1)c1ccccc1 [Example 314] | 9.06 |
| C[C@@H](NC(=O)Nc1cc2[nH]nc(-c3cnc(N(C)S(C)(=O)=O)nc3)c2cn1)c1ccccc1 [Example 292] | 8.44 |
| Cn1cc(-c2n[nH]c3cc(NC(=O)NCc4ccc(F)c(Cl)c4)ncc23)cn1 [Example 60, 1-(3-chloro-4-fluorobenzyl)-3-[3-(1-methyl-1H-pyrazol-4-yl)-1H-pyrazolo[4,3-c]pyridin-6-yl]urea] | 9.60 |
| Cc1cc(-c2n[nH]c3cc(NC(=O)NCc4c(C)cc(Cl)cc4Cl)ncc23)ccn1 [Example 514] | 8.54 |
| Cc1cc(-c2n[nH]c3cc(NC(=O)N[C@@H]4CN(C)C[C@H]4c4ccccc4)ncc23)ccn1 [Example 582] | 9.63 |
| Cc1cc(-c2n[nH]c3cc(NC(=O)N[C@H](C)c4ccccc4)ncc23)cc(C)n1 [Example 31, 1-[3-(2,6-dimethylpyridin-4-yl)-1H-pyrazolo[4,3-c]pyridin-6-yl]-3-[(1R)-1-phenylethyl]urea] | 9.54 |
| COc1ccc(-c2n[nH]c3cc(NC(=O)N[C@H](C)c4ccccc4)ncc23)cc1 [Example 676] | 9.03 |
| COc1ccnc([C@H](C)NC(=O)Nc2cc3[nH]nc(-c4ccnc(C)c4)c3cn2)c1 [Example 230] | 6.19 |
| Cc1cc(-c2n[nH]c3cc(NC(=O)NC4CCCOC4)ncc23)ccn1 (centres unmarked) [Example 468] | 8.06 |
| Cc1cc(-c2n[nH]c3cc(NC(=O)NCc4ncnn4C)ncc23)ccn1 [Example 424] | 8.59 |
| Cc1cc(-c2n[nH]c3cc(NC(=O)NCc4ccc(Cl)cc4C)ncc23)ccn1 [Example 515] | 8.61 |
| Cc1cc(-c2n[nH]c3cc(NC(=O)N[C@H](C)c4cc(Cl)ccn4)ncc23)ccn1 [Example 229] | 8.98 |
| Cc1cc(-c2n[nH]c3cc(NC(=O)NC4COC4)ncc23)ccn1 [Example 465] | 6.49 |
| Cc1cc(-c2n[nH]c3cc(NC(=O)N4CC(c5cccc(F)c5)C4)ncc23)ccn1 [Example 278] | 7.36 |
| O=C(Nc1cc2[nH]nc(-c3ccc(F)cc3)c2cn1)NC1CCOC1 (centres unmarked) [Example 612] | 7.90 |
| C[C@@H](NC(=O)Nc1cc2[nH]nc(C(=O)NCC3CCOC3)c2cn1)c1ccccc1 (some centres unmarked) [Example 121] | 8.42 |

| SMILES | pIC50 |
| --- | --- |
| Cc1cccc(CNC(=O)Nc2cc3[nH]nc(C(F)F)c3cn2)n1 [Example 695] | 6.81 |
| O=C(NCCC1CCOC1)Nc1cc2[nH]nc(-c3ccc(F)cc3)c2cn1 (centres unmarked) [Example 219] | 8.78 |
| Cc1cc(-c2n[nH]c3cc(NC(=O)N[C@@H]4CCN(CC(F)(F)F)C4)ncc23)ccn1 [Example 326] | 8.45 |
| [2H]C([2H])([2H])OC[C@@H](NC(=O)Nc1cc2[nH]nc(C3CC3)c2cn1)c1ccccc1 [Example 161] | 8.24 |
| Cc1cc(-c2n[nH]c3cc(NC(=O)NCc4cccc(C)n4)ncc23)ccn1 [Example 315] | 8.71 |
| Cc1cc(-c2n[nH]c3cc(NC(=O)NCc4ccccc4OCC(F)F)ncc23)ccn1 [Example 525] | 9.45 |
| CNC(=O)[C@H]1CC1c1n[nH]c2cc(NC(=O)N[C@H](COC)c3ccccc3)ncc12 (some centres unmarked) [Example 171] | 9.01 |
| COc1cc(-c2n[nH]c3cc(NC(=O)N[C@H](C)c4ccc(F)cc4)ncc23)cc(C(F)(F)F)n1 [Example 257] | 6.42 |
| COC[C@@H](NC(=O)Nc1cc2[nH]nc(C3CC3)c2cn1)c1cc(F)ccn1 [Example 168] | 6.93 |
| Cc1cc(-c2n[nH]c3cc(NC(=O)N[C@H]4CCCC(F)(F)[C@@H]4O)ncc23)ccn1 [Example 383] | 7.88 |
| COC(C)CNC(=O)c1n[nH]c2cc(NC(=O)N[C@H](C)c3ccccc3)ncc12 (some centres unmarked) [Example 131] | 7.87 |
| Cc1cc(-c2n[nH]c3cc(NC(=O)NC(CCN(C)C)c4ccccn4)ncc23)ccn1 (centres unmarked) [Example 353] | 8.81 |
| C[C@@H](NC(=O)Nc1cc2[nH]nc(C(=O)N[C@@H]3CCN(O)C3=O)c2cn1)c1ccccc1 [Example 134] | 6.99 |
| CN1C[C@H](NC(=O)Nc2cc3[nH]nc(-c4ccc(F)cc4)c3cn2)[C@@H](c2ccccc2)C1 [Example 213] | 7.38 |
| CN(C)CCNC(=O)Nc1cc2[nH]nc(-c3ccc(F)cc3)c2cn1 [Example 224] | 7.62 |
| C[C@@H](NC(=O)Nc1cc2[nH]nc(-c3ccnc(Cl)c3)c2cn1)c1ccc(F)c(Cl)c1 [Example 75, 1-[(1R)-1-(3-chloro-4-fluorophenyl)ethyl]-3-[3-(2-chloropyridin-4-yl)-1H-pyrazolo[4,3-c]pyridin-6-yl]urea] | 8.58 |
| CCNC(=O)c1n[nH]c2cc(NC(=O)N[C@H](C)c3ccccc3)ncc12 [Example 138] | 8.28 |
| Cc1cc(-c2n[nH]c3cc(NC(=O)N[C@H](COCC(F)F)c4ccccc4)ncc23)no1 [Example 701] | 8.34 |
| Cc1cc(-c2n[nH]c3cc(NC(=O)NC4CCCC(O)C4)ncc23)ccn1 (centres unmarked) [Example 380] | 8.21 |
| CC1CC(c2n[nH]c3cc(NC(=O)N[C@H](C)c4ccccc4)ncc23)=NO1 (some centres unmarked) [Example 687] | 7.25 |
| Cc1cc(-c2n[nH]c3cc(NC(=O)NCC4CNC4)ncc23)ccn1 [Example 586] | 8.89 |
| C[C@@H](NC(=O)Nc1ncc2c(C#N)n[nH]c2c1F)c1ccccc1 [Example 540] | 6.02 |
| Cc1cc(-c2n[nH]c3cc(NC(=O)NCC4COCCO4)ncc23)ccn1 (centres unmarked) [Example 464] | 8.45 |
| COc1ccc(CNC(=O)Nc2cc3[nH]nc(C4CC4)c3cn2)cc1 [Example 155] | 7.22 |

| SMILES | pIC50 |
| --- | --- |
| COC[C@@H](NC(=O)Nc1cc2[nH]nc(-c3ccc(C(F)(F)F)nc3)c2cn1)c1ccc(F)cc1 [Example 305] | 7.61 |
| Cc1cc(-c2n[nH]c3cc(NC(=O)NC4CCCC(Oc5cccc(F)c5)C4)ncc23)ccn1 (centres unmarked) [Example 658] | 7.17 |
| Cc1cc(-c2n[nH]c3cc(NC(=O)NC4CCCC(Oc5cccc(F)c5)C4)ncc23)ccn1 (centres unmarked) [Example 657] | 8.33 |
| Cc1cc(-c2n[nH]c3cc(NC(=O)N[C@H](C)c4ccc(F)c(F)c4)ncc23)ccn1 [Example 412] | 9.52 |
| Cc1cc(-c2n[nH]c3cc(NC(=O)N[C@@H]4CNC[C@@H]4c4ccccc4)ncc23)ccn1 [Example 180] | 8.34 |
| COC(=O)C(NC(=O)Nc1cc2[nH]nc(-c3ccnc(C)c3)c2cn1)C(F)(F)F (centres unmarked) [Example 457] | 7.51 |
| Cc1cc(-c2n[nH]c3cc(NC(=O)NCc4cc(C)on4)ncc23)ccn1 [Example 470] | 8.39 |
| COC(=O)C1CC1c1n[nH]c2cc(NC(=O)N[C@H](C)c3ccccc3)ncc12 (some centres unmarked) [Example 641] | 5.96 |
| Cc1cc(-c2n[nH]c3cc(NC(=O)NCC4(N(C)C)CCC4)ncc23)ccn1 [Example 193] | 6.90 |
| Cc1cc(-c2n[nH]c3cc(NC(=O)NC(C)CC4CCCO4)ncc23)ccn1 (centres unmarked) [Example 239] | 8.23 |
| COC[C@H](NC(=O)Nc1cc2[nH]nc(-c3ccnc(C)c3)c2cn1)c1ccccc1 [Example 587] | 7.90 |
| CC(CN(C)C)NC(=O)Nc1cc2[nH]nc(-c3ccc(F)cc3)c2cn1 (centres unmarked) [Example 228] | 7.15 |
| CCS(=O)(=O)c1ccc(-c2n[nH]c3cc(NC(=O)N[C@H](C)c4ccc(F)cc4)ncc23)cn1 [Example 311] | 7.58 |
| Cc1cc(-c2n[nH]c3cc(NC(=O)NC(C)(C)C)ncc23)ccn1 [Example 36, 1-tert-butyl-3-[3-(2-methylpyridin-4-yl)-1H-pyrazolo[4,3-c]pyridin-6-yl]urea] | 7.49 |
| Cc1cc(-c2n[nH]c3cc(NC(=O)NCC(c4ccccc4)C4(O)CCOCC4)ncc23)ccn1 (centres unmarked) [Example 385] | 9.03 |
| C[C@@H](NC(=O)Nc1cc2[nH]nc(CNCC(F)(F)F)c2cn1)c1ccccc1 [Example 561] | 7.82 |
| Cc1cc(-c2n[nH]c3cc(NC(=O)NCc4csc5ccccc45)ncc23)ccn1 [Example 502] | 8.88 |
| Cc1cc(-c2n[nH]c3cc(NC(=O)N[C@@H](CN)c4ccccc4)ncc23)ccn1 [Example 331] | 7.54 |
| C[C@@H](NC(=O)Nc1cc2[nH]nc(-c3ccnc(F)c3)c2cn1)c1ccc(Cl)cc1 [Example 57, 1-[(1R)-1-(4-chlorophenyl)ethyl]-3-[3-(2-fluoropyridin-4-yl)-1H-pyrazolo[4,3-c]pyridin-6-yl]urea] | 8.73 |
| Cc1cc(-c2n[nH]c3cc(NC(=O)NCCOC(C)C)ncc23)ccn1 [Example 451] | 8.67 |
| Cc1cc(-c2n[nH]c3cc(NC(=O)NCc4cccnn4)ncc23)ccn1 [Example 446] | 8.48 |
| Cc1cc(-c2n[nH]c3cc(NC(=O)NC4CCc5cc(Cl)ccc54)ncc23)ccn1 (centres unmarked) [Example 283] | 7.07 |

same assay, conditions: read-out: AERK2 IC50 (Active human ERK2 Activity Assay)

| SMILES | pIC50 |
| --- | --- |
| Cc1cc(-c2n[nH]c3cc(NC(=O)NCc4cccc(Cl)c4)ncc23)ccn1 [Example 27, 1-(3-chlorobenzyl)-3-[3-(2-methylpyridin-4-yl)-1H-pyrazolo[4,3-c]pyridin-6-yl]urea] | 8.77 to 9.70 |
| Cn1cc(-c2n[nH]c3cc(NC(=O)NCc4ccc(F)c(Cl)c4)ncc23)cn1 [Example 60, 1-(3-chloro-4-fluorobenzyl)-3-[3-(1-methyl-1H-pyrazol-4-yl)-1H-pyrazolo[4,3-c]pyridin-6-yl]urea] | 8.77 to 9.70 |
| Cc1cc(-c2n[nH]c3cc(NC(=O)N[C@H](C)c4ccccc4)ncc23)cc(C)n1 [Example 31, 1-[3-(2,6-dimethylpyridin-4-yl)-1H-pyrazolo[4,3-c]pyridin-6-yl]-3-[(1R)-1-phenylethyl]urea] | 8.77 to 9.70 |
| C[C@@H](NC(=O)Nc1cc2[nH]nc(-c3ccnc(F)c3)c2cn1)c1ccc(Cl)cc1 [Example 57, 1-[(1R)-1-(4-chlorophenyl)ethyl]-3-[3-(2-fluoropyridin-4-yl)-1H-pyrazolo[4,3-c]pyridin-6-yl]urea] | 8.77 to 9.70 |
